Eleven compounds from ChEMBL document CHEMBL1201862, “PubChem BioAssay data set” (2004) can be followed below.

Test systems include KM12; MOLT-4; Malme-3M; HCC 2998; PC-3; CCRF-CEM; OVCAR-3; HOP-92; RPMI-8226; MDA-MB-231; UACC-257; COLO 205; HL-60; MDA-MB-435; UO-31; OVCAR-5; TK-10; A549; Hs-578T; SNB-75.
What all share (assay): inhibition of tumour cell growth, NCI panel, 48 h

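Dose response: 5 concentrations. Exposure: 48 h. Format: 96-well plates. Endpoint: linear interpolation; highest concentration if not reached. Here, GI50 denotes the concentration required for 50% inhibition of growth.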 The source made the active and inactive calls. Rule as the data show it: active = GI50 up to about 1.1 µM and inactive = higher.

As to `COc1cc([N+](=O)[O-])ccc1N1C(=O)C2c3[nH]c4ccccc4c3C3CCC(C(C)(C)C)CC3C2C1=O` (stereo not given), the GI50 was > 100 µM (inactive) with KM12; > 100 µM (inactive) in the assay with MOLT-4; > 100 µM (inactive) in the assay on Malme-3M; > 100 µM (inactive) with HCC 2998; 38.6 µM (inactive) in the assay with PC-3; 21.8 µM (inactive) with CCRF-CEM. The GI50 was > 100 µM (inactive) in the assay with OVCAR-3; 22 µM (inactive) in the assay with HOP-92; > 100 µM (inactive) in the assay on RPMI-8226; 14.7 µM (inactive) in the assay on MDA-MB-231; 76.4 µM (inactive) in the assay on UACC-257; > 100 µM (inactive) in the assay with COLO 205. In addition, the GI50 was > 100 µM (inactive) in the assay on HL-60; 17.4 µM (inactive) in the assay with MDA-MB-435; > 100 µM (inactive) in the assay on UO-31; 80.5 µM (inactive) in the assay with OVCAR-5; > 100 µM (inactive) in the assay on TK-10; > 100 µM (inactive) in the assay with A549. The GI50 in the assay with Hs-578T was 5.6 µM (inactive).

Turning to `C=CCCC(On1c(-c2ccc(Cl)cc2)csc1=S)c1ccccc1` (stereo not given), the GI50 in the assay on KM12 is 26.5 µM (inactive); in the assay on MOLT-4, 7.62 µM (inactive); in the assay with Malme-3M, 14.6 µM (inactive); in the assay with PC-3, 27.3 µM (inactive); in the assay on CCRF-CEM it was 12.4 µM (inactive); in the assay with OVCAR-3, 23 µM (inactive). The GI50 is 40.6 µM (inactive) in the assay with HOP-92; 31.8 µM (inactive) with RPMI-8226; 68.9 µM (inactive) in the assay with MDA-MB-231; 33 µM (inactive) in the assay on UACC-257; 22.5 µM (inactive) in the assay with COLO 205; 7.18 µM (inactive) in the assay on HL-60. Also, the GI50 in the assay on MDA-MB-435 is 4.56 µM (inactive); in the assay with UO-31 it was 42 µM (inactive); with OVCAR-5 it was > 100 µM (inactive); with TK-10 it was 83.4 µM (inactive); with A549, 31.2 µM (inactive); with Hs-578T it was 34.4 µM (inactive).

Regarding `COc1ccc([C@H]2c3cc4c(cc3OC(O)(CO)[C@H]2C(=O)O)OCO4)c(OC)c1.COc1ccc([C@H]2c3cc4c(cc3OC3(O)COC(=O)[C@@H]23)OCO4)c(OC)c1` (stereo not given in full), the GI50 with KM12 is > 100 µM (inactive); in the assay on MOLT-4, 61.5 µM (inactive); in the assay with Malme-3M, > 100 µM (inactive); with HCC 2998, > 100 µM (inactive); in the assay with CCRF-CEM, 37.3 µM (inactive); in the assay on SNB-75, 43.5 µM (inactive). The GI50 with OVCAR-3 is > 100 µM (inactive); in the assay on HOP-92, > 100 µM (inactive); in the assay with RPMI-8226 it was 41.9 µM (inactive); in the assay on UACC-257 it was > 100 µM (inactive); in the assay with COLO 205, > 100 µM (inactive); with HL-60 it was 45.6 µM (inactive). In addition, the GI50 with UO-31, with OVCAR-5, in the assay on TK-10 and with A549 was > 100 µM (inactive) in each case.

Regarding `Cc1cccc(C)c1NC(=O)/C(CC(=O)CC(c1ccccc1)c1c(O)c2ccccc2oc1=O)=N/O` (stereo not given), the GI50 with KM12, in the assay with MOLT-4, in the assay on HCC 2998, with PC-3, in the assay with CCRF-CEM and in the assay on SNB-75 was > 100 µM (inactive) throughout. The GI50 in the assay with OVCAR-3 was > 100 µM (inactive); with HOP-92, 31.3 µM (inactive); with MDA-MB-231, > 100 µM (inactive); in the assay with UACC-257, > 100 µM (inactive); in the assay on COLO 205, > 100 µM (inactive); with HL-60 it was > 100 µM (inactive). For the same compound, the GI50 with MDA-MB-435, in the assay on UO-31, in the assay on OVCAR-5, with TK-10, in the assay with A549 and in the assay on Hs-578T was > 100 µM (inactive) in each case.

In the case of `CC1(C)N=C(c2ccccc2)SC12S[C@@H]1CCCC[C@H]1S2`, the GI50 is > 100 µM (inactive) in the assay on KM12; 63.8 µM (inactive) in the assay on MOLT-4; 56.2 µM (inactive) in the assay with Malme-3M; > 100 µM (inactive) in the assay on PC-3; > 100 µM (inactive) in the assay on CCRF-CEM; > 100 µM (inactive) with SNB-75. Moreover, the GI50 in the assay on OVCAR-3 is > 100 µM (inactive); with HOP-92, > 100 µM (inactive); in the assay with RPMI-8226, 32.2 µM (inactive); in the assay with MDA-MB-231, > 100 µM (inactive); in the assay on UACC-257 it was 41.5 µM (inactive); in the assay on COLO 205, > 100 µM (inactive). Besides, the GI50 with HL-60, in the assay on MDA-MB-435, in the assay with UO-31, with OVCAR-5, with TK-10 and with A549 was > 100 µM (inactive) each time. For the same compound, in the assay with Hs-578T, the GI50 is 4.57 µM (inactive).

On to `O=S(=O)(C1=CC(S(=O)(=O)c2ccccc2)CN(Cc2ccccc2)C1c1cccc2ccccc12)c1ccccc1` (stereo not given), for which the GI50 with KM12, with MOLT-4, with Malme-3M, with HCC 2998, in the assay with CCRF-CEM and in the assay on SNB-75 was > 69 µM (inactive) in each case. In addition, the GI50 in the assay on OVCAR-3 was > 69 µM (inactive); in the assay with HOP-92, 6.3 µM (inactive); with RPMI-8226, > 69 µM (inactive); in the assay on UACC-257, > 69 µM (inactive); in the assay with HL-60, > 69 µM (inactive); with UO-31, > 69 µM (inactive). The GI50 with OVCAR-5, in the assay with TK-10 and in the assay on A549 was > 69 µM (inactive) in each case.

Turning to `O=C1Nc2ccccc2N/C1=C\C(=O)C(F)F`, the GI50 in the assay with KM12, with MOLT-4, in the assay with Malme-3M, with HCC 2998, with PC-3 and with CCRF-CEM was > 100 µM (inactive) in each case. The GI50 with OVCAR-3, with RPMI-8226, in the assay with MDA-MB-231, in the assay on UACC-257, with COLO 205 and in the assay with HL-60 was > 100 µM (inactive) each time. Moreover, the GI50 in the assay with MDA-MB-435, in the assay on UO-31, in the assay on OVCAR-5, with TK-10, with A549 and with Hs-578T was > 100 µM (inactive) in each case.

`CC1(C)OCC(CO)(CO)CO1`: the GI50 in the assay with KM12, with MOLT-4, in the assay on HCC 2998, in the assay on PC-3, in the assay on CCRF-CEM and in the assay with SNB-75 was > 100 µM (inactive) throughout. For the same compound, the GI50 in the assay with OVCAR-3, in the assay on HOP-92, with MDA-MB-231, with UACC-257, in the assay on COLO 205 and with HL-60 was > 100 µM (inactive) throughout. In addition, the GI50 in the assay with MDA-MB-435, with UO-31, in the assay with TK-10, with A549 and with Hs-578T was > 100 µM (inactive) each time.

With `COc1ccc(C(=O)C2CC3(CCC2(O)c2ccc(OC)cc2)CC(=O)Nc2ccccc2C3=O)cc1` (stereo not given), the GI50 in the assay with Malme-3M is > 100 µM (inactive); in the assay with HCC 2998 it was 79.3 µM (inactive); in the assay on PC-3, 1.44 µM (inactive); with CCRF-CEM, 4.38 µM (inactive); with SNB-75, 4.4 µM (inactive); in the assay on OVCAR-3, > 100 µM (inactive). Besides, the GI50 is 0.5 µM (active) in the assay with HOP-92; > 100 µM (inactive) in the assay on MDA-MB-231; > 100 µM (inactive) in the assay on UACC-257; 11.7 µM (inactive) with COLO 205; 5.08 µM (inactive) in the assay on HL-60; > 100 µM (inactive) in the assay on MDA-MB-435. Besides, the GI50 is 18.1 µM (inactive) with UO-31; > 100 µM (inactive) with OVCAR-5; > 100 µM (inactive) in the assay on TK-10; > 100 µM (inactive) in the assay with A549; > 100 µM (inactive) in the assay with Hs-578T.

Take `CCOC(=O)Cc1cnc(NC(NC(=O)CC)(C(F)(F)F)C(F)(F)F)s1`: the GI50 is > 100 µM (inactive) in the assay with KM12; > 100 µM (inactive) in the assay with MOLT-4; > 100 µM (inactive) in the assay with Malme-3M; 93.3 µM (inactive) with HCC 2998; > 100 µM (inactive) in the assay with CCRF-CEM; > 100 µM (inactive) with SNB-75. Further, the GI50 with OVCAR-3, in the assay on RPMI-8226, in the assay on MDA-MB-231, with UACC-257, in the assay with HL-60 and in the assay on MDA-MB-435 was > 100 µM (inactive) throughout. The GI50 with UO-31, in the assay with OVCAR-5, in the assay with TK-10 and with Hs-578T was > 100 µM (inactive) throughout.

Turning to `Oc1nc2ccccc2c2oc3ccccc3c12`, the GI50 in the assay on KM12, with MOLT-4, with Malme-3M, in the assay on HCC 2998, in the assay on PC-3 and with CCRF-CEM was > 100 µM (inactive) in each case. Moreover, the GI50 was 6.81 µM (inactive) in the assay with SNB-75; > 100 µM (inactive) with OVCAR-3; 23.2 µM (inactive) with HOP-92; 83.8 µM (inactive) with MDA-MB-231; > 100 µM (inactive) in the assay with UACC-257; > 100 µM (inactive) in the assay on COLO 205. Moreover, the GI50 with MDA-MB-435 is > 100 µM (inactive); in the assay on UO-31, > 100 µM (inactive); with TK-10 it was > 100 µM (inactive); in the assay with A549 it was > 100 µM (inactive); with Hs-578T, 37.9 µM (inactive).
